In BigSolDB 2.1:

Cl.O=C(O)c1cn(-c2ccc(F)cc2)c2cc(N3CCNCC3)c(F)cc2c1=O
solubility (mole fraction)
Details	in DMF	in acetonitrile	in ethanol	in ethyl acetate	in isopropanol	in methanol	in n-butanol	in n-hexane
278.15 K	0.00136	0.00011	0.00019	0.0038	0.00047	0.00181	0.00148	0.00029
283.15 K	0.00148	0.00012	0.00022	0.00422	0.00059	0.00194	0.00162	0.00033
288.15 K	0.00164	0.00014	0.00025	0.00476	0.00072	0.00211	0.00179	0.00038
293.15 K	0.00183	0.00017	0.00029	0.00539	0.00083	0.00234	0.00202	0.00044
298.15 K	0.00205	0.0002	0.00033	0.00627	0.00098	0.00262	0.00224	0.00053
303.15 K	0.00232	0.00024	0.00037	0.00719	0.0011	0.00294	0.0025	0.00063
308.15 K	0.00259	0.00028	0.00043	0.00831	0.00123	0.0033	0.00281	0.00075
313.15 K	0.0029	0.00034	0.00049	0.00961	0.00134	0.00369	0.00312	0.00089
318.15 K	0.00324	0.0004	0.00056	0.0109	0.00147	0.00411	0.00344	0.00105
323.15 K	0.00359	0.00047	0.00064	0.0126	0.00161	0.00457	0.00379	0.0012
328.15 K	0.00397	0.00054	0.00072	0.0144	0.00172	0.00502	0.00419	0.00137
333.15 K	0.0044	0.00062	0.0008	0.0163	0.00185	0.00549	0.00463	0.00155
